Source: paper PMC11554305, “Functional identification of soluble uric acid as an endogenous inhibitor of CD38” (eLife, 2024)

Experiments:
primed WT BMDMs [1] = experiment: Canonical inflammasome assay, IL-1β release in primed BMDMs; type: cell-based, mouse
Experimental: Human IL-1β, mouse IL-1β, IL-6, IL-18, TNF-α, and CXCL1 levels were measured according to the protocols provided by the manufacturer. Serum samples were diluted before ELISA when applicable. In this study, all the samples were frozen after collection and thawed before ELISA.
WT and CD38 KO BMDMs were primed with 100 ng/mL ultrapure LPS for 4 hr. Subsequently, primed BMDMs were pre-incubated with or without sUA for 2 hr, the cells were then washed twice with sterile PBS and were stimulated with nigericin, MSU crystals, or cLPS in serum-free RPMI-1640 medium.
After stimulation, the culture medium was collected and centrifuged at 3000 rpm, 4°C for 5 min, the supernatant was collected and stored at –30°C until ELISA.

primed WT BMDMs [2] = experiment: sUA uptake assay in primed WT BMDMs; type: cell-based, mouse; settings: sUA 100, 200 or 500 μM, 2 or 15 hr
Experimental: WT BMDMs were primed with 100 ng/mL ultrapure LPS for 4 hr. Then, the cells were washed twice with sterile PBS, and maintained in RPMI-1640 medium containing sUA (100, 200, or 500 μM) for 2 or 15 hr. Subsequently, the cells were washed twice with ice-cold sterile PBS to terminate uptake, 100 μL 5% ice-cold PCA was added into each well. The plates were placed on ice for 2 hr, then cell samples were collected and centrifuged at 15,000 rpm, 4°C for 10 min. The supernatant was used for subsequent handling and measurement (see LC-MS/MS analysis).

[3] = system: bone marrow-derived macrophages (BMDMs); experiment: Extracellular NMN degradation in primed BMDMs; type: cell-based, mouse; settings: WT BMDMs, not in CD38 KO BMDMs; NMN 100 μM, 6 hr
Experimental: (§1) Bone marrow cells were isolated from 10- to 12-week-old WT or CD38 KO mice (both male and female) by washing the marrow cavity with sterile PBS. The collected bone marrow cells were filtered by 70 μm strainers and then centrifuged at 1000 rpm, 4°C for 5 min. The cell pellet was resuspended in 2 mL red blood cell (RBC) lysis buffer for 30 s, then 8 mL complete RPMI-1640 medium (10% FBS, 1% penicillin/streptomycin, and 50 μM 2-mercaptoethanol) was added to terminate the lysis. After 5 min centrifugation at 1000 rpm, 4°C, the cells were resuspended in fresh complete RPMI-1640 medium and maintained for 4 hr in an incubator. Adherent cells were discarded, whereas non-adherent cells were cultured in complete RPMI-1640 medium containing 20 ng/mL M-CSF. After 3-day differentiation, the medium was replaced with fresh complete RPMI-1640 medium containing 20 ng/mL M-CSF. On the 7th day, BMDMs were collected for subsequent experiments. BMDMs were primed with 100 ng/mL ultrapure LPS for 4 hr for canonical inflammasome assay. For metabolic assay of NMN, BMDMs were primed with 100 ng/mL ultrapure LPS for 8 hr to induce higher protein expression of CD38.
WT and CD38 KO BMDMs were primed with 100 ng/mL ultrapure LPS for 8 hr, then the cells were washed twice with sterile PBS. Primed BMDMs were maintained in RPMI-1640 medium supplemented with 100 μM NMN in the presence or absence of sUA. […]

[4] = Solubility and crystal precipitation in solution; type: physicochemical
Experimental: Guanosine was dissolved in DMSO and diluted in the reaction buffer for subsequent assays.
MSU crystals were prepared by the recrystallization of oversaturated sUA according to a previous report ([Martinon et al., 2006]). Improper preparation of sUA solution may introduce crystals to cause false-positive or false-negative results. […] In this study, the sUA solution was prepared according to an improved protocol ([Ma et al., 2020]). […] Then, sUA solution was immediately filtered by 0.2 μm filters and diluted to experimental concentration (up to 10 mg/dL, 595 μM) for cell experiments. […]

WT BMDMs = experiment: Intracellular NAD+ in primed WT BMDMs treated with NMN; type: cell-based, mouse; settings: sUA 100, 200 and 500 μM; NMN 100 μM, 6 hr
Experimental: as §1
WT BMDMs were primed with 100 ng/mL ultrapure LPS for 8 hr. Then, the cells were washed twice with sterile PBS. Afterward, the cells were incubated in control or 100 μM NMN-supplemented RPMI-1640 medium in the presence of sUA or 78c. […]

THP-1 cells = experiment: Intracellular NAD+ assay in THP-1 cells; type: cell-based, human; settings: sUA 0–10 mg/dL pre-incubation 2 hr, then stimulation 6 hr
Experimental: Naïve THP-1 cells were pre-incubated with sUA (0–10 mg/dL) in RPMI-1640 medium containing 1% FBS for 2 hr, then the cells were washed twice with sterile PBS and stimulated with MSU crystals, cLPS, zymosan, or ATP for 6 hr. Subsequently, the cells were washed twice with sterile PBS, and then a total of 100 μL 5% ice-cold PCA was used to extract NAD^+ from cells in each well and medium as mentioned above.
As mentioned above, samples (cells, tissues, blood, or reaction buffer) were treated with ice-cold PCA, after extraction and centrifugation, the collected supernatant was appropriately diluted in 5% ice-cold PCA when applicable, and then was vortexed for 30 s and centrifuged at 15,000 rpm, 4°C for 5 min. Afterward, 30 μL supernatant was added into 200 μL 5 mM ammonium formate containing internal standards at indicated concentrations. Then, all the samples were vortexed for 30 s and centrifuged at 15,000 rpm, 4°C for 5 min again, the final supernatant was used for subsequent measurement. All the samples after handling were immediately analyzed in this study without freezing and thawing.
The LC-MS/MS system consisted of a triple quadrupole LCMS-8050 (Shimadzu) and an LC-30A system (Shimadzu). […] NAD^+ and NMN were measured independently in this study, as their peaks were hardly separated within a short time.

Induction of IL-1β release by sUA itself (primed WT BMDMs [1]; sUA 100, 200 and 500 μM, 6 hr): did not induce IL-1β release
sUA uptake (primed WT BMDMs [2]): very low
Crystal precipitation in stock solution ([4]; 5 mg/mL in NaOH without pH adjustment, 2-month storage at 4°C): Visible crystals were observed
Crystal precipitation in high-concentration stock solutions ([4]; long-term storage at 4°C): promoted crystal precipitation
Compound: O=c1[nH]c(=O)c2[nH]c(=O)[nH]c2[nH]1 [sUA, uric acid]
Inflammasome activation (IL-1β release) (primed WT BMDMs [1]; sUA 100 or 200 μM pre-incubation 2 hr): hardly suppressed inflammasome activation
Extracellular NMN availability [3]: increased extracellular NMN availability
Crystal precipitation in stock solution ([4]; 50 mg/mL in NaOH without pH adjustment): Crystals were immediately precipitated after dissolution
Intracellular NAD+ in primed WT BMDMs treated with NMN (WT BMDMs): failed to boost intracellular NAD^+
Intracellular NAD+ (THP-1 cells): boosted intracellular NAD^+
